Results as given in patent publication US10670605B2, “Cysteine reactive probes and uses thereof” (The Scripps Research Institute, priority 2015, dated 2020).

Assays:
Experiment in all cases: Competitive isoTOP-ABPP in situ (fragment-treated cells)
Type in all cases: cell-based
[1] = molecular target: T1, cysteines in MDA-MB-231 and Ramos cells (Homo sapiens, UniProt O14879)
T1 sequence (O14879 1-490): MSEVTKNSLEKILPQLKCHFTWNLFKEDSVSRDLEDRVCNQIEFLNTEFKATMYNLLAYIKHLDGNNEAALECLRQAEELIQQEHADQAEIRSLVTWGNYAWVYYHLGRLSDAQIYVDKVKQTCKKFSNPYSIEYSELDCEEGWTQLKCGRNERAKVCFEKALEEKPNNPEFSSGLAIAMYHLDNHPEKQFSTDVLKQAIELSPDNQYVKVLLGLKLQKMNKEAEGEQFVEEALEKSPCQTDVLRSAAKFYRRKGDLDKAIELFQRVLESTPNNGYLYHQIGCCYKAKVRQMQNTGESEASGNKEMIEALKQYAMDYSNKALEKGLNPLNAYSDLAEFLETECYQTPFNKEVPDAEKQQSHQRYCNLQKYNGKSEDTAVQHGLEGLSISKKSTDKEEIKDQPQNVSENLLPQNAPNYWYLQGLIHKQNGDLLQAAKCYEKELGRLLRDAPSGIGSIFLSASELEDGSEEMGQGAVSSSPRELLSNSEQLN

[2] = molecular target: T2, cysteines in MDA-MB-231 and Ramos cells (Homo sapiens, UniProt P35611)
T2 sequence (P35611 1-737): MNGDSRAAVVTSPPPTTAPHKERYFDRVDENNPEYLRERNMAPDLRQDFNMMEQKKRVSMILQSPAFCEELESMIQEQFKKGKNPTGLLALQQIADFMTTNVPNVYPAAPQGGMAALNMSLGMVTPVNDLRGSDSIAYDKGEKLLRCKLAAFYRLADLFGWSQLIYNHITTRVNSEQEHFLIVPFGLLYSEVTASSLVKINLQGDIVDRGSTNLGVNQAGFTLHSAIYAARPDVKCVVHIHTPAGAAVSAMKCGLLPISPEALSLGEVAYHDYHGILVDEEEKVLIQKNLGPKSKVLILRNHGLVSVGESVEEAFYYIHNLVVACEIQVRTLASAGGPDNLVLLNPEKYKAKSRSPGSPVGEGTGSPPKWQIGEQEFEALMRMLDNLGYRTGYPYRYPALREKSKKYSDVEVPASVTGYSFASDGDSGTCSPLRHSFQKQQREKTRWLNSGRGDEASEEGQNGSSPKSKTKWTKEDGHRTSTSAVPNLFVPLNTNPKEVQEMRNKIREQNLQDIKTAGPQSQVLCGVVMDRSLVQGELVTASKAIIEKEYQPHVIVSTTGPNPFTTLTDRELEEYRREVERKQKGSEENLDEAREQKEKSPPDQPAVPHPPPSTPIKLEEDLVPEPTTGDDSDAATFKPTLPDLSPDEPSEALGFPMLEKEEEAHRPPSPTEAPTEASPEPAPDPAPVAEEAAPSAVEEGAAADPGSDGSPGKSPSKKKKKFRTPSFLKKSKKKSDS

[3] = molecular target: cysteines in MDA-MB-231 and Ramos cells (Homo sapiens, UniProt P62888)
[4] = molecular target: T3, cysteines in MDA-MB-231 and Ramos cells (Homo sapiens, UniProt Q9HCC0)
T3 sequence (Q9HCC0 23-563): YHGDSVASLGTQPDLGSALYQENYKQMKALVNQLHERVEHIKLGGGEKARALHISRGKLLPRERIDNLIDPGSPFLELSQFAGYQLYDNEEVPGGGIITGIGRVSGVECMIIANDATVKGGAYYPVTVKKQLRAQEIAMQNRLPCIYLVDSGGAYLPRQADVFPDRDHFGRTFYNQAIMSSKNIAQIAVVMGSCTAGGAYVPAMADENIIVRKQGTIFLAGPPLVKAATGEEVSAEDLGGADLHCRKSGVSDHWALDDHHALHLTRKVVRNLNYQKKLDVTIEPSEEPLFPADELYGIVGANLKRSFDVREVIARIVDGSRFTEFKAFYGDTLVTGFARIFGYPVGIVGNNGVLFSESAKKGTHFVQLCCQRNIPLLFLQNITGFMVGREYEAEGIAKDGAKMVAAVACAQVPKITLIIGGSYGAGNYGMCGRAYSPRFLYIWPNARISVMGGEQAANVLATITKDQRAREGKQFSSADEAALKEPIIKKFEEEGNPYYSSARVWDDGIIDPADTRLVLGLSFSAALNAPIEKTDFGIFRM

[5] = molecular target: T4, cysteines in MDA-MB-231 and Ramos cells (Homo sapiens, UniProt Q9NQW6)
T4 sequence (Q9NQW6 1-1124): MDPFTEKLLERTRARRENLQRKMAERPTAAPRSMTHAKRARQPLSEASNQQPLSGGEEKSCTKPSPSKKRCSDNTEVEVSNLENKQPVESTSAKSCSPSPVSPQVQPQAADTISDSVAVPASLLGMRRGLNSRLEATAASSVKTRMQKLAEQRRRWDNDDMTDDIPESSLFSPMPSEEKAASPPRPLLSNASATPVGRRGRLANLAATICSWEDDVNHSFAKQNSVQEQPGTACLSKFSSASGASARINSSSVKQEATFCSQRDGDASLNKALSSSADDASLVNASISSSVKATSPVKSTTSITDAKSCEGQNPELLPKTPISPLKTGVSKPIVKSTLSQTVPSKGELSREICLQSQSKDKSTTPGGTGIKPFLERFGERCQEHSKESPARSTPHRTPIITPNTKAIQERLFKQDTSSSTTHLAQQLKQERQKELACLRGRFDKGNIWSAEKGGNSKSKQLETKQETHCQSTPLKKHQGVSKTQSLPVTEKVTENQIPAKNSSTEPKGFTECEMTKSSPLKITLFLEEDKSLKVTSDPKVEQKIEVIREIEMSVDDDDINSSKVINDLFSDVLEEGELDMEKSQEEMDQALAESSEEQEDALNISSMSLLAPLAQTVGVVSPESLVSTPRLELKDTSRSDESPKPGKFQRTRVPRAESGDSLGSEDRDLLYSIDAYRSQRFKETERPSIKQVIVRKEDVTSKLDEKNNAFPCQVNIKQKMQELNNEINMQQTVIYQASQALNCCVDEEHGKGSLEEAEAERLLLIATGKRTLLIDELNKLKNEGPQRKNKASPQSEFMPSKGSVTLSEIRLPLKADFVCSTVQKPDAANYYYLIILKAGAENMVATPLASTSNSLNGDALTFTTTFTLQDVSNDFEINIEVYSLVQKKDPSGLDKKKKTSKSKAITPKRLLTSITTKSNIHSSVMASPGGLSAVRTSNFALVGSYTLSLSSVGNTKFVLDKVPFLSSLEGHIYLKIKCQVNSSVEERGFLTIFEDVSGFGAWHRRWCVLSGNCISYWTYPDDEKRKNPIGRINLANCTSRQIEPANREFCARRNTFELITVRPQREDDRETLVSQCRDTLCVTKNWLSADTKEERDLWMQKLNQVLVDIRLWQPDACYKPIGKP

isoTOP-ABPP ratio O14879_C343 ([1]; 200 μM, insitu, 231) | isoTOP-ABPP ratio P35611_C68 ([2]; 200 μM, insitu, 231) | isoTOP-ABPP ratio P62888_C92 ([3]; 200 μM, insitu, 231) | isoTOP-ABPP ratio Q9NQW6_C712 ([5]; 200 μM, insitu, 231) | SMILES | isoTOP-ABPP ratio Q9HCC0_C216 ([4]; 200 μM, insitu, 231) | also measured
3.5 | 3.6 | 1.1 | 16.7 | O=C(CCl)NC(=O)NC12CC3CC(CC(C3)C1)C2 [compound 12] | 20.0 | 
0.4 | 0.9 | 0.6 | 1.0 | CC(C)CCOCCNC(=O)CCl [compound 27] | 1.0 | 
 | 1.4 | 3.2 | 1.5 | C=CC(=O)Nc1cc(F)c(N2CCN(C(=O)OC(C)(C)C)CC2)c(F)c1 [compound 38] |  | 
0.3 | 0.9 | 0.8 | 0.7 | Cc1ccc(C=C(C#N)C(=O)NCCN2CCOCC2)cc1 [compound 41] | 1.0 | 
1.3 | 1.0 | 0.9 |  | O=C(CCl)Nc1cccc2ncccc12 [compound 51] | 0.9 | 

More lines, now with the values behind:

SMILES | isoTOP-ABPP ratio O14879_C343 ([1]; 200 μM, insitu, 231) | isoTOP-ABPP ratio P35611_C68 ([2]; 200 μM, insitu, 231) | isoTOP-ABPP ratio P62888_C92 ([3]; 200 μM, insitu, 231) | isoTOP-ABPP ratio Q9NQW6_C712 ([5]; 200 μM, insitu, 231) | isoTOP-ABPP ratio Q9HCC0_C216 ([4]; 200 μM, insitu, 231) | also measured
COc1ccc2c(c1)CCCN2C(=O)CCl [compound 2] |  |  |  |  |  | isoTOP-ABPP reactivity O14879_C343 IFIT3 ([1]; 200 μM, insitu, 231): 7.6; isoTOP-ABPP reactivity P35611_C68 ADD1 ([2]; 200 μM, insitu, 231): 5.8; isoTOP-ABPP reactivity P62888_C92 RPL30 ([3]; 200 μM, insitu, 231): 1.0; isoTOP-ABPP reactivity Q9HCC0_C216 MCCC2 ([4]; 200 μM, insitu, 231): 4.6
COc1ccc(C2CC(c3cccs3)=NN2C(=O)CCl)cc1 (centres unmarked) [compound 4] |  |  |  |  |  | isoTOP-ABPP reactivity O14879_C343 IFIT3 ([1]; 100 μM in situ 231): 6.6; isoTOP-ABPP reactivity P35611_C68 ADD1 ([2]; 100 μM in situ 231): 4.3; isoTOP-ABPP reactivity P62888_C92 RPL30 ([3]; 100 μM in situ 231): 2.7; isoTOP-ABPP reactivity Q9HCC0_C216 MCCC2 ([4]; 100 μM in situ 231): 5.9; isoTOP-ABPP reactivity Q9NQW6_C712 ANLN ([5]; 100 μM in situ 231): 4.1
COc1cc2c(cc1OC)CN(C(=O)CCl)CC2 [compound 8] |  |  |  |  |  | isoTOP-ABPP reactivity O14879_C343 IFIT3 ([1]; 200 μM, insitu, 231): 2.1; isoTOP-ABPP reactivity P35611_C68 ADD1 ([2]; 200 μM, insitu, 231): 2.4; isoTOP-ABPP reactivity P62888_C92 RPL30 ([3]; 200 μM, insitu, 231): 1.5; isoTOP-ABPP reactivity Q9HCC0_C216 MCCC2 ([4]; 200 μM, insitu, 231): 3.9; isoTOP-ABPP reactivity Q9NQW6_C712 ANLN ([5]; 200 μM, insitu, 231): 14.1
O=C(CCl)N1CCC(Cc2ccccc2)CC1 [compound 9] |  |  |  |  |  | isoTOP-ABPP reactivity O14879_C343 IFIT3 ([1]; 200 μM, insitu, 231): 17.2; isoTOP-ABPP reactivity P35611_C68 ADD1 ([2]; 200 μM, insitu, 231): 4.3; isoTOP-ABPP reactivity P62888_C92 RPL30 ([3]; 200 μM, insitu, 231): 1.3; isoTOP-ABPP reactivity Q9NQW6_C712 ANLN ([5]; 200 μM, insitu, 231): 3.1
O=C(CCl)N1CCN(S(=O)(=O)c2ccccc2F)CC1 [compound 10] | 4.9 | 1.9 | 1.3 | 11.2 | 2.3 | isoTOP-ABPP ratio P62888_C92 ([3]; 200 μM, insitu, ramos): 4.5
Cn1cc(S(=O)(=O)N2CCOCC2)cc1C(=O)NC(=O)CCl [compound 11] |  |  |  |  |  | isoTOP-ABPP ratio O14879_C343 ([1]; 100 μM in situ 231): 0.4; isoTOP-ABPP ratio P35611_C68 ([2]; 100 μM in situ 231): 0.9; isoTOP-ABPP ratio P62888_C92 ([3]; 100 μM in situ 231): 0.8; isoTOP-ABPP ratio Q9HCC0_C216 ([4]; 100 μM in situ 231): 1.9; isoTOP-ABPP ratio Q9NQW6_C712 ([5]; 100 μM in situ 231): 0.9
O=C(CCl)NCCc1c[nH]c2ccccc12 [compound 13] | 1.0 | 1.1 | 0.8 | 1.3 |  | isoTOP-ABPP ratio P35611_C68 ([2]; 200 μM, insitu, ramos): 1.0; isoTOP-ABPP ratio P62888_C92 ([3]; 200 μM, insitu, ramos): 2.0; isoTOP-ABPP ratio Q9HCC0_C216 ([4]; 200 μM, insitu, ramos): 1.8
O=C(CCl)NC12CC3CC(CC(C3)C1)C2 [compound 21] | 0.8 | 0.8 | 0.9 |  | 2.2 | 
COc1ccccc1OCCNC(=O)CCl [compound 28] | 0.7 | 1.7 | 0.9 | 0.9 |  | 
O=C(CCl)N1CCN(CC(=O)N2CCOCC2)CC1 [compound 29] |  |  |  |  |  | isoTOP-ABPP ratio P62888_C92 ([3]; 200 μM, insitu, ramos): 2.0
C=CC(=O)N(Cc1cccnc1)c1cc(C(F)(F)F)cc(C(F)(F)F)c1 [compound 31] | 0.9 |  |  | 0.7 |  | 
CC1CCc2ccccc2N1C(=O)CCl (centres unmarked) [compound 45] | 4.0 | 20.0 | 2.2 | 5.9 | 7.0 | 
